System: eGFP-SLX4 and MUS81
Experiment: Chromatin residency of eGFP-SLX4 and MUS81 (chromatin-fraction co-IP)
Type: cell-based, human
Conditions: acute CDK1 inhibition, eGFP-SLX4 Co-IP from mitotic chromatin
Method: Cell pellets stored at −80 °C were thawed on ice, followed by addition of ten volumes to 1 NIB-250 (15 mM Tris-HCL (pH 7.5), 60 mM KCl, 15 mM NaCl, 5 mM MgCl2, 1 mM CaCl2, 250 mM sucrose) containing 1 mM DTT, 1x cOmplete, EDTA-free Protease Inhibitor +0.3% NP. The cells were mixed by pipetting gently and then incubated on ice for 10 min. The cell pellet was then centrifuged at 400–600 x g for 5 min at 4 °C. The supernatant was transferred to a separate tube (cytoplasmic fraction). The nuclei pellet was then resuspended in ten volumes of 10:1 NIB-250 without detergent containing 1 mM DTT and 1x cOmplete, EDTA-free Protease Inhibitor. The nuclei were then pelleted by centrifugation at 400–600 x g for 5 min at 4 °C and the supernatant was discarded. The pellet was then resuspended 7 volumes relative to pellet volume of hypotonic buffer (3 mM EDTA, 0.2 mM EGTA containing 1 mM DTT and 1x cOmplete, EDTA-free Protease Inhibitor) and incubated on ice for 30 min, vortexing every 5 min. The insoluble chromatin fraction was collected by centrifugation for 4 min at 1700 x g. The supernatant, was retained, containing the nucleoplasm fraction. The chromatin pellet was washed with hypotonic buffer containing 1 mM DTT and protease inhibitors and the above centrifugation was repeated. The supernatant was discarded and the pellet retained and used as starting material for immunoprecipitation experiments. […]

How did the “chromatin residency of eGFP-SLX4 and MUS81” value turn out when `O=C1NC(=NCc2cccs2)S/C1=C\c1ccc2ncccc2c1` [CDK1i] was run?
The value was “markedly impaired chromatin residency of eGFP-SLX4 and MUS81”.

Source: publication PMC12661054, “The CIP2A-TOPBP1 axis facilitates mitotic DNA repair via MiDAS and MMEJ” (Nature Communications, 2025)
